Measured values reported in patent US10724055B2, “Methods for sustaining the viability of microorganisms during a cessation of syngas flow and processes for storage and reactivation of microorganisms” (Synata Bio, Inc., priority 2015, dated 2020).

How the values were obtained:
Assay in all cases: Sustaining microorganisms with formate moiety during cessation of syngas feed, recovery on syngas resumption
Type in all cases: cell-based
[1] = test system: Clostridium autoethanogenum
Method: (§1) A stirred, 10 liter, continuous fermenter is used under anaerobic bioconversion conditions with a feed gas comprising about 63.3 volume percent hydrogen; 20.5 volume percent carbon monoxide; 6.8 volume percent carbon dioxide; 8.2 volume percent methane and 1.2 volume percent nitrogen. During steady state operation, the gas feed is supplied at about 280 to 290 […] (measured at atmospheric pressure and 25° C.) and a media feed is provided at about 200 milliliters per hour. The media feed is an aqueous solution containing:
(§2) An aqueous solution of about 60 millimoles of sodium metabisulfite is separately added at a rate of 0.6 milliliters per hour. The fermenter is maintained at about 37° C. at a pH of about 5.0. The stirring rate is approximately 600 revolutions per minute.
In each example, the fermentation, using the microorganism specified in Table 1, is operated to achieve stable, steady-state conditions. The flow of syngas is then stopped. […] After a predetermined period, the addition of formate moiety is stopped, the nitrogen sweep gas is stopped and the syngas is resumed at a rate that matches the uptake capacity of the microbial population. The stirring is increased to about 600 rpm, and the flow rates of the media feed and metabisulfite feed are resumed to the levels existing prior to the cessation of the syngas feed.

Clostridium coskatii = settings: no media or sulfur feed
Method: as §1, §2
(§3) In each example, the fermentation, using the microorganism specified in Table 1, is operated to achieve stable, steady-state conditions. The flow of syngas is then stopped. At the time of stoppage of syngas feed, the fermenter is operated in batch mode (no aqueous stream draw from the fermenter), nitrogen gas at about 15 milliliters per minute (atmospheric pressure and 25° C.) is fed to sweep the head space of the fermenter, and the stirring rate is reduced to about 100 rpm. After a predetermined period, the addition of formate moiety is stopped, the nitrogen sweep gas is stopped and the syngas is resumed at a rate that matches the uptake capacity of the microbial population. The stirring is increased to about 600 rpm, and the flow rates of the media feed and metabisulfite feed are resumed to the levels existing prior to the cessation of the syngas feed.

[2] = test system: Clostridium autoethanogenum; settings: Example 2; formate feed 3.5 mole % of electrons; outage 6 hrs; media feed 10%; Na2S 20 mg/hr; argon sweep gas
Clostridium radsdalei = settings: Example 3; formate feed 5 mole % of electrons; outage 12 hrs; no media or sulfur feed
Method: as §1, §2, §3

[3] = Example 9, formate feed 10 mole % of electrons, outage 6 hrs, no media or sulfur feed
[4] = Example 10, formate feed 10 mole % of electrons, outage 24 hrs, no media or sulfur feed
[5] = Example 4, formate feed 3.5 mole % of electrons, outage 6 hrs
[6] = Example 5, formate feed 3.5 mole % of electrons, outage 24 hrs
[7] = Example 6, formate feed 15 mole % of electrons, outage 24 hrs
[8] = Example 1, formate feed 3.5 mole % of electrons prior to outage, syngas outage 6 hrs, media feed 10%, Na2S 20 mg/hr, nitrogen sweep
[9] = Example 8, formate feed 3.5 mole % of electrons, outage 6 hrs, no media or sulfur feed

O=CO [Formic acid]
Yes: CO uptake recovery [1, 3] | H2 uptake recovery [1, 3] | CO uptake recovery [1, 4] | H2 uptake recovery [1, 4]

N.O=CO [NH4^+ salt]
Yes: CO uptake recovery (Clostridium coskatii; [5]) | H2 uptake recovery (Clostridium coskatii; [5]) | CO uptake recovery (Clostridium coskatii; [6]) | H2 uptake recovery (Clostridium coskatii; [6]) | CO uptake recovery (Clostridium coskatii; [7]) | H2 uptake recovery (Clostridium coskatii; [7])

O=C[O-].[Na+] [Sodium salt]
Yes: CO uptake recovery [2] | CO uptake recovery (Clostridium radsdalei) | H2 uptake recovery (Clostridium radsdalei) | CO uptake recovery [1, 8] | H2 uptake recovery [1, 8] | H2 uptake recovery ([1]; Example 2, formate feed 3.5 mole % of electrons, outage 6 hrs, media feed 10%, Na2S 20 mg/hr, argon sweep gas) | CO uptake recovery [1, 9] | H2 uptake recovery [1, 9]
